In paper PMC10583239 (CPT: Pharmacometrics & Systems Pharmacology, 2023):
≈ marks a conversion by molar mass, not a printed value.

What was measured:
[1] = target: T1, CYP2B6 (Homo sapiens, UniProt P20813); settings: main text summary
T1 sequence (P20813 1-491): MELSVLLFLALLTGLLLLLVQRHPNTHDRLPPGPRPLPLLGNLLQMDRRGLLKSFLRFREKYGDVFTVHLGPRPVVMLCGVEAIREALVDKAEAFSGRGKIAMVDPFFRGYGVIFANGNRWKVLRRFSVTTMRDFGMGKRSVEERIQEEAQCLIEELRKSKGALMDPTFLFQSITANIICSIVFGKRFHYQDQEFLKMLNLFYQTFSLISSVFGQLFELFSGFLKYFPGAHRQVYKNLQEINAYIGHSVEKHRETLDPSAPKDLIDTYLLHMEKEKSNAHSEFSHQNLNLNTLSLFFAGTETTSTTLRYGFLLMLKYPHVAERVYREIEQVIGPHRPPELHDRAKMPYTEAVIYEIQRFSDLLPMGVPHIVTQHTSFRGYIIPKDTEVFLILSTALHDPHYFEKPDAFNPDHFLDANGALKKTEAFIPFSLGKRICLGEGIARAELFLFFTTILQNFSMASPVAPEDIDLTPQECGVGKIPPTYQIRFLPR

[2] = target: T2, CYP2C8 (Homo sapiens, UniProt P10632); assay: Metabolic stability in recombinant human CYP2C8 with NADPH; type: in vitro ADME; settings: CYP2C8 share of CYP metabolism, scaled by abundance and ISEF
T2 sequence (P10632 1-490): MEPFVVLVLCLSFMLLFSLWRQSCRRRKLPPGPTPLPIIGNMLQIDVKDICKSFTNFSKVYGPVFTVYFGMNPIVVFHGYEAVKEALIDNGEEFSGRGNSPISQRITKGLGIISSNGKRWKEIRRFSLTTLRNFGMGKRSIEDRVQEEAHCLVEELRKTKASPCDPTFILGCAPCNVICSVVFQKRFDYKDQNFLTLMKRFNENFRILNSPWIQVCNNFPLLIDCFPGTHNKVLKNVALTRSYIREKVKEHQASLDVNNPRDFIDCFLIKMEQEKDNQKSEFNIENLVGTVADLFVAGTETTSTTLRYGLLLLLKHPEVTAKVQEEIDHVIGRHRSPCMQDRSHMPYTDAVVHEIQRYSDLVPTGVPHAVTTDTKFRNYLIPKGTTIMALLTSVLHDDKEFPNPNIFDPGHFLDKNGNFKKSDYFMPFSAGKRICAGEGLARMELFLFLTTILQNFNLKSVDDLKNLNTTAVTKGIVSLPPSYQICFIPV

[3] = target: T3, CYP2D6 (Homo sapiens, UniProt P10635); assay: Metabolic stability in recombinant human CYP2D6 with NADPH; type: in vitro ADME; settings: CYP2D6 share of CYP metabolism, scaled by abundance and ISEF
[4] = target: recombinant human CYP3A5 (Homo sapiens, UniProt P20815); assay: Metabolic stability in recombinant human CYP3A5 with NADPH; type: in vitro ADME; settings: CYP3A5 share of CYP metabolism, scaled by abundance and ISEF
[5] = target: T1, CYP2B6; assay: Metabolic stability in recombinant human CYP2B6 with NADPH; type: in vitro ADME; settings: CYP2B6 share of CYP metabolism, scaled by abundance and ISEF
[6] = Human liver microsomal protein binding; type: in vitro ADME; settings: human liver microsomes
[7] = Aqueous phase solubility; type: physicochemical; settings: pH 6.71, aqueous buffer
[8] = target: T3, CYP2D6; assay: CYP2D6 inhibition in human liver microsomes; type: in vitro ADME
[9] = target: T2, CYP2C8; assay: CYP2C8 inhibition in human liver microsomes; type: in vitro ADME

T3 sequence (P10635 whole entry): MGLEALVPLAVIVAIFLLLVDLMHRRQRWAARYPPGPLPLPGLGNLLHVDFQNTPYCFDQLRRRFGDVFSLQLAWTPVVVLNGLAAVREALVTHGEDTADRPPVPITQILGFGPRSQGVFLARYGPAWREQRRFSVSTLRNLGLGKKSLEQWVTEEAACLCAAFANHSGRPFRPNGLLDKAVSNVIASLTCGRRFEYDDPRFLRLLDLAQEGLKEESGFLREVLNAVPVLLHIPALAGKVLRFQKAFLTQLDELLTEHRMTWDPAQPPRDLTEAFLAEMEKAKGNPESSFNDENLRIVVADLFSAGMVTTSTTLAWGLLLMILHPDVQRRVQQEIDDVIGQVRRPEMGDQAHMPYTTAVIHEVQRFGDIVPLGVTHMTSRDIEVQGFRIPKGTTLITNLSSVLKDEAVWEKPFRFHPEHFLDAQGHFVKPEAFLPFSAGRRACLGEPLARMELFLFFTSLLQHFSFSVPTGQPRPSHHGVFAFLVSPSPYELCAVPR
Chain of recombinant human CYP3A5 (P20815 whole entry): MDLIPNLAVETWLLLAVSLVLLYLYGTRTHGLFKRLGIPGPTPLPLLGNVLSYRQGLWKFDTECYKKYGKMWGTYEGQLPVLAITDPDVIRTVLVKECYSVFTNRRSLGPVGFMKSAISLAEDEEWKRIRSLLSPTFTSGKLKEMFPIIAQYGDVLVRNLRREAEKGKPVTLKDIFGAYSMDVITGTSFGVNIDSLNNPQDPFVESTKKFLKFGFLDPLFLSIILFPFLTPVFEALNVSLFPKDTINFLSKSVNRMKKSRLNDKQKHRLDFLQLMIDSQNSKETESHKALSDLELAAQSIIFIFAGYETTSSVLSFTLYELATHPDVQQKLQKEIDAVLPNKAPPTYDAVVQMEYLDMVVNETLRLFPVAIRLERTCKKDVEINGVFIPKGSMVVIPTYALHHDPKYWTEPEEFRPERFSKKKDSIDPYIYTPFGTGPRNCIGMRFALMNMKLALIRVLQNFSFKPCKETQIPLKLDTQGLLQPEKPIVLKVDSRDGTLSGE

## N#C[C@H](C[C@@H]1CCCNC1=O)NC(=O)[C@H](CC1CC1)NC(=O)c1cc2cccc(Cl)c2[nH]1 [Pomotrelvir, pomotrelvir]
[1]
  inhibitory effect on CYP2B6 in vitro (in words): No inhibitory effect
[2]
  Relative Contribution (fm): 11%
[3]
  Relative Contribution (fm): negligible
[4]
  Relative Contribution (fm): negligible
[5]
  Relative Contribution (fm): negligible
[6]
  fraction unbound: 0.85
[7]
  solubility: 10 µg/mL (≈ 21.9 µM)
[8]
  Ki: 25.4 µM
[8]; main text summary
  inhibitory effect on CYP2D6 in vitro (in words): No inhibitory effect
[9]
  Ki: 1.93 µM
[9]; main text summary
  inhibitory effect on CYP2C8 in vitro (in words): weak to moderate inhibition
